Reference: PMC7307906, “Macrocyclic Modalities Combining Peptide Epitopes and Natural Product Fragments” (Journal of the American Chemical Society, 2020)

Assays:
human MC1R [1] = target: T1, human MC1R (Homo sapiens, UniProt Q01726); assay: Melanocortin receptor radioligand binding (SPA, [125I]-NDP-α-MSH displacement), MC1R; settings: competitive binding, mean (± SEM) of at least three independent experiments, read-out: IC50 hMC1R binding
T1 construct: expressed in transfected cells

human MC4R [2] = target: T2, human MC4R (Homo sapiens, UniProt P32245); assay: Melanocortin receptor radioligand binding (SPA, [125I]-NDP-α-MSH displacement), MC4R; settings: competitive binding, mean (± SEM) of at least three independent experiments, read-out: IC50 hMC4R binding
T2 construct: expressed in transfected cells
T2 sequence (P32245 whole entry): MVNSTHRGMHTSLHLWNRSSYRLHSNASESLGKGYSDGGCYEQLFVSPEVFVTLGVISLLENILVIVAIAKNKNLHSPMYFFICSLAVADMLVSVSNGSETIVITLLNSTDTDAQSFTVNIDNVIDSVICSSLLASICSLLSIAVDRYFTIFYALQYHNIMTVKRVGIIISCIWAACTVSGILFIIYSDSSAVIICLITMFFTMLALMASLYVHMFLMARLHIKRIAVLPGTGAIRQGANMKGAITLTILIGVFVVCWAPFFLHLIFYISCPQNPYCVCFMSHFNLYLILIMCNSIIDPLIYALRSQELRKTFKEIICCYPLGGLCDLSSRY

human MC3R [3] = target: T3, human MC3R (Homo sapiens, UniProt P41968); assay: Melanocortin receptor radioligand binding (SPA, [125I]-NDP-α-MSH displacement), MC3R; settings: competitive binding, mean (± SEM) of at least three independent experiments, read-out: IC50 hMC3R binding
T3 construct: expressed in transfected cells
T3 sequence (P41968 whole entry): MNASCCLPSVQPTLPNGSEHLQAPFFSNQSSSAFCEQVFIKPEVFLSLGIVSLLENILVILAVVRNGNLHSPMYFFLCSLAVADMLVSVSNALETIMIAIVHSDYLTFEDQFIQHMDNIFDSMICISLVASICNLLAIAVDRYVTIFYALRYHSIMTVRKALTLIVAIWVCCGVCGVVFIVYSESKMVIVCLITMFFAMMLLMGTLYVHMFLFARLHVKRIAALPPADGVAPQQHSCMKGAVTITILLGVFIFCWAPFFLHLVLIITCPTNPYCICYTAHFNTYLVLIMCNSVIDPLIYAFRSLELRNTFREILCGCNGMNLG

human MC4R [4] = target: T2, human MC4R; assay: cAMP assay (LANCE) in T-Rex-293 cells expressing MC4R; assay type: cell-based; settings: for EC50: cAMP assay, mean (± SEM) of at least three independent experiments, read-out: EC50 hMC4R cAMP
human MC1R [5] = target: T1, human MC1R; assay: cAMP assay (LANCE) in T-Rex-293 cells expressing MC1R; assay type: cell-based; settings: for Emax: T-REx-293, read-out: % Effect hMC1R cAMP; for EC50: cAMP assay, mean (± SEM) of at least three independent experiments, read-out: EC50 hMC1R cAMP
human MC5R = target: T4, human MC5R (Homo sapiens, UniProt P33032); assay: Melanocortin receptor radioligand binding (SPA, [125I]-NDP-α-MSH displacement), MC5R; settings: for IC50: competitive binding, [125I]-NDP-α-MSH, mean (± SEM) of at least three independent experiments, read-out: IC50 hMC5R binding
T4 construct: expressed in transfected cells; host or cells: HEK293-6E suspension cells, transient expression; membranes
T4 sequence (P33032 whole entry): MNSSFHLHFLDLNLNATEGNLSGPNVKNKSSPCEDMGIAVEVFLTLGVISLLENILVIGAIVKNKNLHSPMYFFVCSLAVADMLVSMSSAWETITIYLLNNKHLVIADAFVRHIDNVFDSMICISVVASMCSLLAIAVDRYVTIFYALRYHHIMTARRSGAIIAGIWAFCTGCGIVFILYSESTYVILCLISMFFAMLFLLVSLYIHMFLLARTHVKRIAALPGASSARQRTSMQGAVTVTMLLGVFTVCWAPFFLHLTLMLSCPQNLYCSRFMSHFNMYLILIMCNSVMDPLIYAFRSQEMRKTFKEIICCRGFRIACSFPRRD

human MC3R [6] = target: T3, human MC3R; assay: cAMP assay (LANCE) in T-Rex-293 cells expressing MC3R; assay type: cell-based; settings: for EC50: cAMP assay, mean (± SEM) of at least three independent experiments, read-out: EC50 hMC3R cAMP
[7] = Emax (curve plateau), relative to NDP-α-MSH, NA = No Activity detected, threshold 20% effect

T1 sequence (Q01726 whole entry): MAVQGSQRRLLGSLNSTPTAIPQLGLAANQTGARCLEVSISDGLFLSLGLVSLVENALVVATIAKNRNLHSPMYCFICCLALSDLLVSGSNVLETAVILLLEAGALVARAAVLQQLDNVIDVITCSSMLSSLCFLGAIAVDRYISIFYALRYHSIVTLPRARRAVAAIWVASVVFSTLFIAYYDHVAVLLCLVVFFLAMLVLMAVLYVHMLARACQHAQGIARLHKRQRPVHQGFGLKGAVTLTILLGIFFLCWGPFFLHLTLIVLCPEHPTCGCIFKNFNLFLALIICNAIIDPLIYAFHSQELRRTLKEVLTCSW

Row | IC50 (human MC1R [1]) | IC50 (human MC4R [2]) | IC50 (human MC3R [3]) | EC50 (human MC4R [4]) | Emax (human MC1R [5]) | EC50 (human MC1R [5]) | IC50 (human MC5R) | EC50 (human MC3R [6]) | selectivity for MC5R against MC1R (human MC5R; ratio of binding IC50, MC1R versus MC5R) | selectivity for MC5R against MC3R (human MC5R; ratio of binding IC50, MC3R versus MC5R) | selectivity for MC5R against MC4R (human MC5R; ratio of binding IC50, MC4R versus MC5R) | % Effect hMC4R cAMP (human MC4R [4]; [7]) | % Effect hMC3R cAMP (human MC3R [6]; [7]) | % Effect hMC1R cAMP at 100 µM (human MC1R [5]; % effect at 100 µM, compounds not reaching an upper plateau (§)) | % Effect hMC1R cAMP at 10 µM (human MC1R [5]; % effect at 10 µM, compounds not reaching an upper plateau (#)) | SMILES
1 | 81 ± 3 µM | 91 ± 5 µM | 85 ± 6 µM | > 100 µM | 40% | 9.3 ± 3.6 µM | 6.5 ± 0.9 µM | > 100 µM |  |  |  |  |  |  |  | C[C@@H]1NC(=O)[C@H](CC(N)=O)NC(=O)[C@H](Cc2ccccc2)NC(=O)[C@H](Cc2ccccc2)NC(=O)[C@H](CCCNC(=N)N)NC(=O)[C@H](Cc2ccccc2)N(C)C(=O)[C@H]2N[C@@H](c3ccc(cc3)C(=O)NCCCC[C@@H](C(=O)N[C@@H](Cc3ccc(O)cc3)C(N)=O)NC1=O)[C@H]1C(=O)N(c3ccccc3)C(=O)[C@H]12 [F2-minor, [ II-FRFFNAK ]Y]
2 | > 10 µM | > 10 µM | > 10 µM | > 10 µM | 38% | 1.8 ± 0.3 µM | > 10 µM | > 10 µM |  |  |  |  |  |  |  | C[C@@H]1NC(=O)[C@H](CC(N)=O)NC(=O)[C@@H](Cc2ccccc2)NC(=O)[C@@H](Cc2ccccc2)NC(=O)[C@H](CCCNC(=N)N)NC(=O)[C@H](Cc2ccccc2)N(C)C(=O)[C@@H]2N[C@H](c3ccc(cc3)C(=O)NCCCC[C@@H](C(=O)N[C@@H](Cc3ccc(O)cc3)C(N)=O)NC1=O)[C@@H]1C(=O)N(C)C(=O)[C@@H]12 [G1-major, [I-FRffNAK ]Y]
3 | > 100 µM | > 100 µM | > 100 µM | > 100 µM | 51% | 17 ± 5 µM | 41 ± 9 µM | > 100 µM |  |  |  |  |  |  |  | CN1C(=O)[C@@H]2[C@H](C1=O)[C@H]1N[C@@H]2c2ccc(cc2)C(=O)NCCCC[C@@H](C(=O)N[C@@H](Cc2ccc(O)cc2)C(N)=O)NC(=O)[C@H](CC(N)=O)NC(=O)[C@H](Cc2ccccc2)NC(=O)[C@H](Cc2ccccc2)NC(=O)[C@H](CCCNC(=N)N)NC(=O)[C@H](Cc2ccccc2)N(C)C1=O [J1-major, [ I-FRFFNK ]Y]
4 | 32 ± 1 µM | 38 ± 6 µM | 39 ± 2 µM | > 100 µM | 46% | 6.4 ± 0.3 µM | 11 ± 1 µM | > 100 µM |  |  |  |  |  |  |  | CN1C(=O)[C@H]2N[C@@H](c3ccc(cc3)C(=O)NCCCC[C@@H](C(=O)N[C@@H](Cc3ccc(O)cc3)C(N)=O)NC(=O)[C@H](CC(N)=O)NC(=O)[C@H](Cc3ccccc3)NC(=O)[C@H](Cc3ccccc3)NC(=O)[C@H](CCCNC(=N)N)NC(=O)[C@@H]1Cc1ccccc1)[C@H]1C(=O)N(c3ccccc3)C(=O)[C@H]12 [J2-major, [ II-FRFFNK ]Y]
5 | 78 ± 2 µM | > 100 µM | > 100 µM | > 100 µM | 63% | 14 ± 5 µM | 54 ± 6 µM | > 100 µM |  |  |  |  |  |  |  | CN1C(=O)[C@H]2N[C@@H](c3ccc(cc3)C(=O)NCCCC[C@@H](C(=O)NCC(N)=O)NC(=O)[C@H](CC(N)=O)NC(=O)[C@H](Cc3ccccc3)NC(=O)[C@H](Cc3ccccc3)NC(=O)[C@H](CCCNC(=N)N)NC(=O)[C@@H]1Cc1ccccc1)[C@H]1C(=O)N(c3ccccc3)C(=O)[C@H]12 [J3-major*, [ II-FRFFNK ]G]
6 | 13 ± 1 µM | 17 ± 2 µM | 21 ± 1 µM | > 100 µM |  | > 100 µM | 6.2 ± 0.5 µM | > 100 µM |  |  |  |  |  |  |  | CN1C(=O)[C@@H]2N[C@H](c3ccc(cc3)C(=O)NCCCC[C@@H](C(=O)NCC(N)=O)NC(=O)[C@H](CC(N)=O)NC(=O)[C@H](Cc3ccccc3)NC(=O)[C@H](Cc3ccccc3)NC(=O)[C@H](CCCNC(=N)N)NC(=O)[C@@H]1Cc1ccccc1)[C@@H]1C(=O)N(c3ccccc3)C(=O)[C@@H]12 [J3-minor*, [ II-FRFFNK ]G]
7 | 31 ± 3 µM | 54 ± 4 µM | 19 ± 3 µM | > 100 µM | 47% | 4.1 ± 0.4 µM | 4.1 µM | > 100 µM | 7 fold | 5 fold | 13 fold |  |  |  |  | CN1C(=O)[C@@H]2N[C@H](c3ccc(cc3)C(=O)NCCCC[C@@H](C(=O)N[C@@H](Cc3ccc(O)cc3)C(N)=O)NC(=O)[C@H](CC(N)=O)NC(=O)[C@@H](Cc3ccccc3)NC(=O)[C@@H](Cc3ccccc3)NC(=O)[C@H](CCCNC(=N)N)NC(=O)[C@@H]1Cc1ccccc1)[C@@H]1C(=O)N(c3ccccc3)C(=O)[C@@H]12 [K1-major, [II-FRffNK ]Y]
8 | > 10 µM | > 10 µM | > 10 µM | > 10 µM |  | > 10 µM | > 10 µM | > 10 µM |  |  |  |  |  |  |  | CN1C(=O)[C@@H]2[C@H](C1=O)[C@H]1N[C@@H]2C(=O)N(C)[C@@H](Cc2ccccc2)C(=O)N[C@@H](CCCNC(=N)N)C(=O)N[C@H](Cc2ccccc2)C(=O)N[C@H](Cc2ccccc2)C(=O)N[C@@H](CC(N)=O)C(=O)N[C@H](C(=O)NCC(N)=O)CCCCNC(=O)c2ccc1cc2 [K2-minor, [I-FRffNK ]G]
9 | > 10 µM | > 10 µM | > 10 µM | > 10 µM | 42% | > 10 µM | 4.2 ± 0.1 µM | > 10 µM |  |  |  |  |  |  |  | CN1C(=O)[C@@H]2N[C@H](c3ccc(cc3)C(=O)NCCCC[C@@H](C(=O)NCC(N)=O)NC(=O)[C@H](CC(N)=O)NC(=O)[C@@H](Cc3ccccc3)NC(=O)[C@@H](Cc3ccccc3)NC(=O)[C@H](CCCNC(=N)N)NC(=O)[C@@H]1Cc1ccccc1)[C@@H]1C(=O)N(c3ccccc3)C(=O)[C@@H]12 [K3-major, [II-FRffNK ]G]
10 | > 10 µM | > 10 µM | > 10 µM | > 10 µM |  | > 10 µM | > 10 µM | > 10 µM |  |  |  |  |  |  |  | CN1C(=O)[C@H]2N[C@@H](c3ccc(cc3)C(=O)NCCCC[C@@H](C(=O)NCC(N)=O)NC(=O)[C@H](CC(N)=O)NC(=O)[C@@H](Cc3ccccc3)NC(=O)[C@@H](Cc3ccccc3)NC(=O)[C@H](CCCNC(=N)N)NC(=O)[C@@H]1Cc1ccccc1)[C@H]1C(=O)N(c3ccccc3)C(=O)[C@H]12 [K3-minor, [II-FRffNK ]G]
11 | 58 ± 1 µM | > 100 µM | 57 ± 1 µM | 3.7 ± 0.2 µM | 85% | 3.9 ± 0.5 µM | 16 ± 1 µM | 6.4 ± 1.1 µM |  |  |  | 66% | 26% |  |  | COc1ccc(N2C(=O)[C@@H]3[C@H](C2=O)[C@H]2N[C@@H]3c3ccc(cc3)C(=O)NCCCC[C@@H](C(=O)NCC(N)=O)NC(=O)[C@H](CC(N)=O)NC(=O)[C@@H](Cc3ccccc3)NC(=O)[C@@H](Cc3ccccc3)NC(=O)[C@H](CCCNC(=N)N)NC(=O)[C@H](Cc3ccccc3)N(C)C2=O)cc1 [K4-major, [III-FRffNK ]G]
12 | > 100 µM | > 100 µM | > 100 µM | > 100 µM |  | > 100 µM | 91 ± 3 µM | > 100 µM |  |  |  |  |  | 23% |  | COc1ccc(N2C(=O)[C@@H]3[C@H](C2=O)[C@H]2N[C@@H]3C(=O)N(C)[C@@H](Cc3ccccc3)C(=O)N[C@@H](CCCNC(=N)N)C(=O)N[C@H](Cc3ccccc3)C(=O)N[C@H](Cc3ccccc3)C(=O)N[C@@H](CC(N)=O)C(=O)N[C@H](C(=O)NCC(N)=O)CCCCNC(=O)c3ccc2cc3)cc1 [K4-minor, [III-FRffNK ]G]
13 | > 10 µM | > 10 µM | > 10 µM | > 10 µM |  | > 10 µM | > 10 µM | > 10 µM |  |  |  |  |  |  |  | COc1cc(N2C(=O)[C@@H]3[C@H](C2=O)[C@H]2N[C@@H]3c3ccc(cc3)C(=O)NCCCC[C@@H](C(=O)NCC(N)=O)NC(=O)[C@H](CC(N)=O)NC(=O)[C@@H](Cc3ccccc3)NC(=O)[C@@H](Cc3ccccc3)NC(=O)[C@H](CCCNC(=N)N)NC(=O)[C@H](Cc3ccccc3)N(C)C2=O)cc(OC)c1OC [K5-major, [XI-FRffNK ]G]
14 | > 10 µM | > 10 µM | > 10 µM | > 10 µM |  | > 10 µM | > 10 µM | > 10 µM |  |  |  |  |  |  | 33% | CN1C(=O)[C@H]2N[C@@H](c3ccc(cc3)C(=O)NCCCC[C@@H](C(=O)N[C@@H](Cc3ccc(O)cc3)C(N)=O)NC(=O)[C@H](Cc3ccccc3)NC(=O)[C@H](Cc3ccccc3)NC(=O)[C@H](CCCNC(=N)N)NC(=O)[C@@H]1Cc1ccccc1)[C@H]1C(=O)N(c3ccccc3)C(=O)[C@H]12 [N1-major*, [II-FRFFK ]Y]
15 | > 100 µM | > 100 µM | > 100 µM | > 100 µM | 46% | 14 ± 4 µM | 38 ± 2 µM | > 100 µM |  |  |  |  |  |  |  | CN1C(=O)[C@H]2N[C@@H](c3ccc(cc3)C(=O)NCCCC[C@@H](C(=O)NCC(N)=O)NC(=O)[C@H](Cc3ccccc3)NC(=O)[C@H](Cc3ccccc3)NC(=O)[C@H](CCCNC(=N)N)NC(=O)[C@@H]1Cc1ccccc1)[C@H]1C(=O)N(c3ccccc3)C(=O)[C@H]12 [N2-major*, [II-FRFFK ]G]
